Here are results for one molecule from article PMC8222276 (Communications Biology, 2021).

Holding throughout (assay type): cell-based
The target in assay [1] is T1, AM1 receptor (CLR-RAMP2) in HUAECs (Homo sapiens, UniProt O60895+Q16602).
T1 construct: host or cells: primary HUAECs
Put plainly: ERK1/2 phosphorylation in HUAECs. As for the experimental part:
Primary cells were grown in 6 well plates, on the day of the experiment media was replaced with serum free media 4 h prior to cell harvesting. Tyrpsin-EDTA was used to dissociate the cells and they were collected by centrifugation, counted and re-suspended HBSS/BSA (0.1%). Ligands were also diluted in HBSS/BSA. Cells were then plated on 384 well plates in 8 μl aliquots at a density of 20,000 cells/well. Next, ligands were added (4 μl) for 5 min stimulation at room temperature. Cells were then lysed as per to the manufacturer’s instructions with 4 μl of lysis buffer (Cisbio phosphor-ERK1/2 cellular assay kit, Invitrogen, UK) for 30 min shaking at room temperature. The 2 specific antibodies; were pre-mixed in a 1:1 ratio. 4 μl of this was added to each well and the plate incubated for a further 2 h.
(§1) All sample sizes were determined, and data analysed, in accordance with the guidelines described by Curtis M et al.[65]. All experiments were appropriately controlled using ‘system pathway’ agonists. If any of these pathway controls generated inappropriate responses, then the entire data set was removed from analysis. […] Data analysis for cAMP accumulation, Ca^2+i mobilisation, NO accumulation, pERK1/2 activation, and cell proliferation assays were performed in GraphPad Prism 8.4 (GraphPad Software, San Diego). Data were fitted to obtain concentration–response curves using either the three-parameter logistic equation using to obtain values of Emax and pEC50 or the operational model of agonism. Statistical differences were analysed using one-way ANOVA followed by Dunnett’s post-hoc (for comparisons amongst more than two groups) or unpaired Student’s t test with Welch’s correction (for comparison between two groups). To account for the day-to-day variation experienced from the cultured cells, we used the maximal level of cAMP accumulation from cells in response to 100 μM forskolin stimulation was used as a reference, 10 μM ionomycin for Ca^2+i assays, 10 μM phorbol 12-myristate 13-acetate (PMA) for pERK1/2 activation, 10 μM acetylcholine for NO production and 10 μM VEGF for cell proliferation. […] Where appropriate the operational model for receptor agonism[27] was used to obtain efficacy (τ) and equilibrium disassociation constant (KA) values. In both cases, this normalisation removes the variation due to differences in days but retains the variance for control values. The means of individual experiments were combined to generate the curves shown. Having obtained values for τ and KA these were then used to quantify signalling bias as the change in Log(τ/KA)[19],[28]. Error for this composite measure was propagated by applying Eq. 1.1 PooledSEM=(SEMA)^2+(SEMB)^2 Where, SEMA and SEMB are the standard error of measurement A and B. […]

Assay [2] addresses T2, AM1 receptor (CLR-RAMP2) in HUVECs (Homo sapiens, UniProt O60895+Q16602).
T2 construct: HUVECs specifically express the AM1 receptor alone; host or cells: primary HUVECs
Briefly: total nitric oxide production in HUVECs. The conditions noted are these: HUVEC. Here is the method:
Data are analysed using a three-parameter non-linear regression curve or the operational model of receptor agonism. g–h Signalling bias plots were calculated as ∆Log(τ/KA) (g) or ∆∆Log(τ/KA) (h) for each agonist and for each signalling pathway. […] Solid arrows indicate known pathways. Dashed arrows represent possible pathways.
Endothelial cells and HCMs were cultured as above. 24 h prior to assay cells were plated on Costar 96-well black clear bottom plates at 40,000 cells/well. The assay was performed according to the manufacturer’s protocol. Briefly, cells pre-incubated with NO dye and assay buffer 1 (Fluorometric Nitric Oxide Assay Kit, Abcam, UK) for 30 min at 37 °C in 5% CO2. Any inhibitors requiring 30 min pre-treatment (YM/L-NAME/DMSO control) were added at this point. Ligand stimulation occurred immediately after this for 15 min at 37 °C in 5% CO2. Stain and ligand solution was removed, assay buffer II was added, and wells were read immediately. The absorbance was measured using a Tecan T200 (Thermo Fisher Scientific UK) reader with an excitation/emission of 540/590 nm. Endothelial cell responses were normalised to 10 μM acetylcholine. HCM responses were normalised to 10 μM isoproterenol[63],[64].
(§2) All sample sizes were determined, and data analysed, in accordance with the guidelines described by Curtis M et al.[65]. All experiments were appropriately controlled using ‘system pathway’ agonists. If any of these pathway controls generated inappropriate responses, then the entire data set was removed from analysis. […] Data analysis for cAMP accumulation, Ca^2+i mobilisation, NO accumulation, pERK1/2 activation, and cell proliferation assays were performed in GraphPad Prism 8.4 (GraphPad Software, San Diego). Data were fitted to obtain concentration–response curves using either the three-parameter logistic equation using to obtain values of Emax and pEC50 or the operational model of agonism. Statistical differences were analysed using one-way ANOVA followed by Dunnett’s post-hoc (for comparisons amongst more than two groups) or unpaired Student’s t test with Welch’s correction (for comparison between two groups). To account for the day-to-day variation experienced from the cultured cells, we used the maximal level of cAMP accumulation from cells in response to 100 μM forskolin stimulation was used as a reference, 10 μM ionomycin for Ca^2+i assays, 10 μM phorbol 12-myristate 13-acetate (PMA) for pERK1/2 activation, 10 μM acetylcholine for NO production and 10 μM VEGF for cell proliferation. […] Where appropriate the operational model for receptor agonism[27] was used to obtain efficacy (τ) and equilibrium disassociation constant (KA) values. In both cases, this normalisation removes the variation due to differences in days but retains the variance for control values. The means of individual experiments were combined to generate the curves shown. Having obtained values for τ and KA these were then used to quantify signalling bias as the change in Log(τ/KA)[19],[28]. Error for this composite measure was propagated by applying Eq. 1.1 PooledSEM=(SEMA)^2+(SEMB)^2 Where, SEMA and SEMB are the standard error of measurement A and B.

Assay [3] deals with T1, AM1 receptor (CLR-RAMP2) in HUAECs. Put plainly: cAMP accumulation in HUAECs. Here is the method: All primary cell lines were cultured as above. On the day of the experiment media was removed and cells washed with PBS, before being dissociated with Trypsin-EDTA 0.05% (Gibco, UK) and then resuspended in PBS/BSA (0.1%) (Sigma, UK). Cells were immediately plated for use in cAMP assay as per the manufacturer’s instructions, reagents used were provided by the LANCE® cAMP detection assay kit (PerkinElmer, Boston, MA, USA), in 384 well optiplates (PerkinElmer (Boston, MA, USA)) at 2000 cells/well in 5 μl aliquots. […] Cells were incubated with compound for 30 min prior to adding detection buffer[28],[60]. Plates were incubated for a further 60 min (room temperature) and then read on a plate reader (Mithras LB 940 microplate reader (Berthold technologies, Germany)). All responses were normalised to 100μM forskolin (Tocris, UK). Antagonist studies were performed in the same way through co-stimulation of the relevant concentration. Alongside control-treated cell. Experiments with PTX (Sigma, UK) required pretreatment (16 h) prior to assays.
as §1, with “The means of individual experiments were combined to generate the curves shown.” left out, “Log(τ/KA)[19],[28].” for “Log(τ/KA)[19],[28]. Error for this composite measure was propagated by applying Eq. 1.1 PooledSEM=(SEMA)^2+(SEMB)^2 Where, SEMA and SEMB are the standard error of measurement A and B.”
(In general: Cyclic AMP is a second messenger, typically raised through Gs and lowered through Gi signalling.)

Assay [4] concerns human cardiomyocytes (HCMs). Put plainly: cell proliferation (72 h) of HCMs. The conditions noted are these: HCM. As for the experimental part:
Data are analysed using a three-parameter non-linear regression curve or the operational model of receptor agonism. g, h Signalling bias plots were calculated as ∆Log(τ/KA) (g) or ∆∆Log(τ/KA) (h) for each agonist and for each signalling pathway. […] All data represent mean ± SEM for n repeats.
Both endothelial cell lines and HCMs were seeded at a density of 2500 cells/well in a clear flat bottom 96-well plate (Corning, UK) and incubated at 37 °C in 5% CO2. After 24 h, cells were exposed to test compounds or vehicle, in complete endothelial cell growth media (HUVECs) or myocyte growth media (HCMs). Cells were incubated for a further 72 h at 37 °C in 5% CO2. After 72 h incubation, 5 μl of Cell Counting Kit–8 (CCK-8, Sigma, UK) was added to each well and cells were then incubated for another 2 h at 37 °C in 5% CO2 and in the dark[61]. The absorbance of each well was measured using a Mithras LB940 microplate reader with an excitation of 450 nm. The absorbance is directly proportional to the number of viable cells. Cell proliferation was calculated as a percentage of number of cells treated with vehicle alone.
as §2

Setting [5] is: pERK1/2, HUAEC, operational model, mean ± SEM.
The mark [6] stands for this setting: NO, operational model, mean ± SEM.
Where [7] appears, read: cAMP, HUAEC, operational model, mean ± SEM.
Setting [8] is: proliferation, operational model, mean ± SEM.

SMILES strings stand for the structures.

T1 sequence (Q16602 23-461): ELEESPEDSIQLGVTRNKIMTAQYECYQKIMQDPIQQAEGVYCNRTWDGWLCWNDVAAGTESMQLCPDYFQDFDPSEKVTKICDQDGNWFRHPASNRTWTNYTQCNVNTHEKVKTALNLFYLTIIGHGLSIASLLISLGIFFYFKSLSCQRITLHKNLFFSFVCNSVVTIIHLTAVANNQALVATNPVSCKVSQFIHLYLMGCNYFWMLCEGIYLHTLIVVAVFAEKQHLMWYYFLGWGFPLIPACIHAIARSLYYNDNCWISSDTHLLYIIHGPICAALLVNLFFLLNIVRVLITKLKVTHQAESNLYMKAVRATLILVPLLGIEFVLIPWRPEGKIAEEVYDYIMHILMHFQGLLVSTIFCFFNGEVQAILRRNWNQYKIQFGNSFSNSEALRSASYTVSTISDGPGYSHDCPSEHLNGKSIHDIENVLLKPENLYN
T1 sequence (O60895 43-175): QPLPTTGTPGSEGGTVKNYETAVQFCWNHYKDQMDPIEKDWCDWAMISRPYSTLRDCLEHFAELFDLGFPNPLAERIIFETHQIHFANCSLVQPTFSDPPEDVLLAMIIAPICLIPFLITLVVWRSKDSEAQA
T2 sequence (Q16602 23-461): as the sequence (Q16602 23-461) above
T2 sequence (O60895 43-175): as the sequence (O60895 43-175) above

For `CSCC[C@H](NC(=O)[C@H](CC(C)C)NC(=O)[C@H](CCC(N)=O)NC(=O)[C@H](Cc1c[nH]c2ccccc12)NC(=O)[C@H](CC(C)C)NC(=O)[C@H](CCCNC(=N)N)NC(=O)[C@H](Cc1c[nH]cn1)NC(=O)[C@H](CO)NC(=O)[C@H](CC(C)C)NC(=O)[C@H](CC(N)=O)NC(=O)[C@H](CCC(N)=O)NC(=O)[C@@H](NC(=O)[C@H](CCC(N)=O)NC(=O)[C@@H]1CSSC[C@H](NC(=O)CNC(=O)[C@@H](NC(=O)[C@H](CCCNC(=N)N)NC(=O)[C@H](CC(C)C)NC(=O)[C@H](CC(C)C)NC(=O)[C@H](CCC(N)=O)NC(=O)[C@H](C)NC(=O)[C@H](CCC(N)=O)NC(=O)[C@@H](N)[C@@H](C)O)C(C)C)C(=O)N[C@@H](C(C)C)C(=O)N[C@@H](CC(C)C)C(=O)NCC(=O)N[C@@H]([C@@H](C)O)C(=O)N1)C(C)C)C(=O)NCC(=O)N1CCC[C@H]1C(=O)N[C@@H](C)C(=O)NCC(=O)N[C@@H](CCCNC(=N)N)C(=O)N[C@@H](CCC(N)=O)C(=O)N[C@@H](CC(=O)O)C(=O)N[C@@H](CO)C(=O)N[C@@H](C)C(=O)N1CCC[C@H]1C(=O)N[C@H](C(=O)N[C@@H](CC(=O)O)C(=O)N1CCC[C@H]1C(=O)N[C@@H](CO)C(=O)N[C@@H](CO)C(=O)N1CCC[C@H]1C(=O)N[C@@H](Cc1c[nH]cn1)C(=O)N[C@@H](CO)C(=O)N[C@@H](Cc1ccc(O)cc1)C(N)=O)C(C)C` [AM2, adrenomedullin 2], the Emax in assay [1] was determined as 17.6 ± 2.44%; in assay [2] it was 82.1 ± 4.62%; in assay [3] it was 17.5 ± 1.21%; in assay [4] (proliferation, 72 h, CCK-8, mean ± SEM), 114.68±3.58%. In addition, the “Transducer coefficient Log(τ/KA)” value is 4.76±0.35 in assay [1] (pERK1/2, HUAEC, calculated from Table S1); 6.80±0.17 in assay [2] (NO, calculated from Table S1); 6.03±0.22 in assay [3] (cAMP, HUAEC, calculated from Table S1); 5.78±0.60 in assay [4] (Growth, calculated from Table S2). The logτ in assay [1] (setting [5]) is -0.67±0.12; in assay [2] (setting [6]), 0.65±0.09; in assay [3] (setting [7]), -0.75±0.05; in assay [4] (setting [8]), -0.60±0.12. The pKA in assay [1] (setting [5]) is listed as 5.43±0.33; in assay [2] (setting [6]), 6.15±0.15; in assay [3] (setting [7]) it was 6.78±0.21; in assay [4] (setting [8]) it was 6.38±0.59. Further, the “order of potencies for NO synthesis” value in assay [2] was “order of potencies AM2 > AM > CGRP”. The molecule further registered a negative logarithm of the EC50 (pEC50) in assay [4] (proliferation, 72 h, mean ± SEM of 3-6 data sets) of 6.48±0.58.

One may read the pEC50 as the EC50 on a negative log10 scale, so that one unit is a factor of ten. Low readings indicate a high EC50, high ones a low EC50.
